What all share (format): cell-based
The test system of one assay is IL-17FF. As to the kind of experiment: IL-17FF production by PHA-stimulated human PBMC (IL-17F ELISA). The protocol:
(§1) Analysis of Proliferation of and Cytokine Production by Human PBMC Stimulated with PHA
(§2) Peripheral blood mononuclear cells (PBMC) from healthy human donors were purified using Accuspin™ System-Histopaque-1077 (Sigma) according to the protocol recommended by the manufacturer. Purified PBMC were then washed twice with phosphate-buffered saline (PBS) and resuspended in RPMI1640 culture medium supplemented with 10% dialyzed heat inactivated fetal calf serum, 1.5 mM L-glutamine, 100 U penicillin/ml, and […] (all from PAN Biotech, Aidenbach, Germany). For stimulation, PBMC were seeded at 1×10^5 cells/well, activated with 2 μg/ml phytohaemagglutinin (PHA, Sigma) and incubated with the test compounds for 48 hours. IL-17A, IL-17F and INF-γ were then determined in the culture supernatant using a Luminex BioPlex system, following the manufacturer's instructions (BioRad, Munich, Germany). For screening, compounds were used at 10, 1, 0.1 and 0.01 μM. To determine the IC50, compounds were titrated semilogarithmically.
(§3) Cytokines were determined in the aforementioned culture supernatant using the following methods: IL-17AA/AF was measured using the Luminex BioPlex system (BioRad, Munich, Germany); IL-17AA using the human homodimer IL-17A ELISA Ready Set Go Kit from eBioscience (Frankfurt, Germany); IL-17FF using the human IL-17F ELI-Pair from Hölzel DiagnosticaGmBH (Köln, Germany); and IFN-γ using the OptElA human IFN-g ELISA from BD Bioscience (Heidelberg, Germany), all following the manufacturer's instructions.

The test system of assay [1] is PBMC (T cell proliferation). As to the kind of experiment: T cell proliferation assay, PHA-stimulated human PBMC (BrdU ELISA). The method, boiled down: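 BrdU ELISA readout of proliferation at 48 hours. Cells: human PBMC from healthy donors in 10% dialyzed FCS/RPMI1640, 1×10^5 per well, activated by 2 μg/ml phytohaemagglutinin in the presence of compound.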
In a further assay the test system is IFNγ. Put plainly: IFN-γ production by PHA-stimulated human PBMC (IFN-g ELISA). To be noted: 48 h. The protocol: as §1
as §2, with “For stimulation, PBMC were seeded at 1×10^5 cells/well, activated with 2 μg/ml phytohaemagglutinin (PHA, Sigma) and incubated with the test compounds for 48 hours.” left out, “For screening, compounds were used at 10, 1, 0.1 and 0.01 μM. To determine the IC50, compounds were titrated semilogarithmically.” left out
as §3

[2] abbreviates: human PBMC, 2 μg/ml PHA, 48 hours, BrdU, read-out: D: IC50 (Tcell proliferation).
Where [3] appears, read: PHA-stimulated human PBMC, 48 hours, BrdU, column D, activity classes 1-4, read-out: IC50 (Tcell proliferation).

Like-named read-outs stand apart in the source and are kept apart here.

As to `O=C(O)c1c(-c2c(F)cccc2Cl)noc1-c1cnn(-c2cccc(Cl)c2)c1C(F)(F)F` [Example B-18, 3-(2-chloro-6-fluorophenyl)-5-(1-(3-chlorophenyl)-5-(trifluoromethyl)-1H-pyrazol-4-yl)isoxazole-4-carboxylic acid], in the assay on IL-17FF (human PBMC, 2 μg/ml PHA, 48 hours, read-out: B: IC50 (IL-17FF)), the IC50 lay within 1000 to 10000 nM.
For the compound `CCOC(=O)c1c(-c2c(F)cccc2Cl)noc1-c1cnn(-c2ccccc2Cl)c1C(F)(F)F` [Example B-33, ethyl 3-(2-chloro-6-fluorophenyl)-5-(1-(2-chlorophenyl)-5-(trifluoromethyl)-1H-pyrazol-4-yl)isoxazole-4-carboxylate], the IC50 in assay [1] (Homo sapiens, 48 h, read-out: D: IC50 (Tcell proliferation)) was 100 to 1000 nM; in the assay with IL-17FF (Homo sapiens, PBMC, 48 h, read-out: B: IC50 (IL-17FF)), 100 to 1000 nM; in the assay on IFNγ (read-out: C: IC50 (IFNγ)), 100 to 1000 nM.
As for `Cc1csc(-c2c(-c3c(F)cccc3Cl)noc2-c2cnn(-c3cccc(Cl)c3)c2C(F)(F)F)n1` [Example I-4], the IC50 in assay [1] (Homo sapiens, 48 h, read-out: IC50 (Tcell proliferation)) is less than 10 nM; in the assay on IL-17FF (Homo sapiens, PBMC, 48 h, read-out: IC50 (IL-17FF)), less than 10 nM; with IFNγ (read-out: IC50 (IFNγ)) it was less than 10 nM.
Consider `CCOC(=O)c1c(-c2c(F)cccc2Cl)noc1-c1cnn(-c2ccccc2C#N)c1C(F)(F)F` [Example B-44, ethyl 3-(2-chloro-6-fluorophenyl)-5-(1-(2-cyanophenyl)-5-(trifluoromethyl)-1H-pyrazol-4-yl)-isoxazole-4-carboxylate], for which the IC50 in assay [1] (setting [2]) was in the range of 1000 to 10000 nM.
Regarding `COC(=O)c1c(-c2c(F)cccc2Cl)noc1-c1cnn(-c2cccc(Cl)c2)c1C(F)(F)F` [Example 11, methyl 3-(2-chloro-6-fluorophenyl)-5-(1-(3-chlorophenyl)-5-(trifluoromethyl)-1H-pyrazol-4-yl)isoxazole-4-carboxylate], the IC50 in assay [1] (setting [2]) is less than 10 nM.
Turning to `COC(=O)c1c(-c2c(F)cccc2Cl)noc1-c1cnn(-c2cccc(N)c2)c1C(F)(F)F` [Example B-92, methyl 5-(1-(3-aminophenyl)-5-trifluoromethyl)-1H-pyrazol-4-yl)-3-(2-chloro-6-fluorophenyl)isoxazole-4-carboxylate], the IC50 in assay [1] (setting [2]) lay in the range of 10 to 100 nM.
As for `Cc1nnc(-c2c(-c3c(F)cccc3Cl)noc2-c2cnn(-c3cccc(Cl)c3)c2C(F)(F)F)o1` [IB-4, 2-(3-(2-chloro-6-fluorophenyl)-5-(1-(3-chlorophenyl)-5-(trifluoromethyl)-1H-pyrazol-4-yl)isoxazol-4-yl)-5-methyl-1,3,4-oxadiazole], the IC50 in assay [1] (setting [3]) was less than 10 nM.
On to `COC(=O)c1c(-c2c(F)cccc2Cl)noc1-c1cnn(CC(C)C)c1C(F)(F)F` [Example 28], for which the IC50 in assay [1] (setting [2]) was 100 to 1000 nM.
For `CC(C)OC(=O)c1c(-c2c(F)cccc2Cl)noc1-c1cnn(-c2cccc(Cl)c2)c1C(F)(F)F` [Example B-31, isopropyl 3-(2-chloro-6-fluorophenyl)-5-(1-(3-chlorophenyl)-5-(trifluoromethyl)-1H-pyrazol-4-yl)isoxazole-4-carboxylate], the IC50 in assay [1] (setting [2]) is less than 10 nM.
`COC(=O)c1c(-c2c(F)cccc2Cl)noc1-c1cnn(-c2ccc(OC(F)(F)F)cc2)c1C(F)(F)F` [Example 33, methyl 3-(2-chloro-6-fluorophenyl)-5-(1-(4-(trifluoromethoxy)phenyl)-5-(trifluoromethyl)-1H-pyrazol-4-yl)isoxazole-4-carboxylate]: in assay [1] (setting [2]), the IC50 lay in the range of 1000 to 10000 nM.
As to `COC(=O)c1c(-c2c(F)cccc2Cl)noc1-c1cnn(-c2ccc(F)cc2)c1C(F)(F)F` [Example 3, methyl 3-(2-chloro-6-fluorophenyl)-5-(1-(4-fluorophenyl)-5-(trifluoromethyl)-1H-pyrazol-4-yl)isoxazole-4-carboxylate], the IC50 in assay [1] (setting [2]) was in the range of 10 to 100 nM.
Consider `COC(=O)c1c(-c2ccccc2)noc1-c1cnn(-c2cccc(F)c2)c1C(F)(F)F` [Example 51, methyl 5-(1-(3-fluorophenyl)-5-(trifluoromethyl)-1H-pyrazol-4-yl)-3-phenylisoxazole-4-carboxylate], for which the IC50 in assay [1] (setting [2]) was 1000 to 10000 nM.
For the compound `COc1cccc(Cl)c1-c1noc(-c2cnn(-c3cccnc3)c2C(F)(F)F)c1-c1cnco1` [IB-31, 3-(2-chloro-6-methoxyphenyl)-4-(oxazol-5-yl)-5-(1-(pyridin-3-yl)-5-(trifluoromethyl)-1H-pyrazol-4-yl)isoxazole], the IC50 in assay [1] (setting [3]) is 1000 to 10000 nM.
`Fc1cccc(-n2ncc(-c3onc(-c4c(F)cccc4Cl)c3-c3ccsc3)c2C(F)(F)F)c1` [Example I-16, 3-(2-chloro-6-fluorophenyl)-5-(1-(3-fluorophenyl)-5-(trifluoromethyl)-1H-pyrazol-4-yl)-4-(thiophen-3-yl)isoxazole]: the IC50 in assay [1] (setting [3]) is less than 10 nM.
In the case of `Fc1cccc(Cl)c1-c1noc(-c2cnn(-c3cccc(Cl)c3)c2C(F)(F)F)c1-c1nccs1` [Example I-5, 3-(2-chloro-6-fluorophenyl)-5-(1-(3-chlorophenyl)-5-(trifluoromethyl)-1H-pyrazol-4-yl)-4-(thiazol-2-yl)isoxazole], the IC50 in assay [1] (setting [3]) was less than 10 nM.
For `Fc1cccc(-n2ncc(-c3onc(-c4c(F)cccc4Cl)c3-c3ccccc3)c2C(F)(F)F)c1` [Example I-14, 3-(2-chloro-6-fluorophenyl)-5-(1-(3-fluorophenyl)-5-(trifluoromethyl)-1H-pyrazol-4-yl)-4-phenylisoxazole], the IC50 in assay [1] (setting [3]) fell in the range of 100 to 1000 nM.

These data come from US8592456B2 (4SC Discovery GmbH, priority 2011, dated 2013).
